Square brackets hold non-standard residues; d marks the D form. Peptide text beside a SMILES is read from it. * marks the point of attachment. NOTA = O=C(O)CN1CCN(CC(=O)O)CCN(CC(=O)*)CC1; 2Thi = N[C@@H](Cc1cccs1)C(=O)O; Nle = CCCC[C@H](N)C(=O)O; AEEA = NCCOCCOCC(=O)O; βAla = NCCC(=O)O
How the values were obtained:
GRPR [1] = molecular target: T1, GRPR (Homo sapiens, UniProt P30550); assay: Competitive binding in human breast cancer T47D cells; conditions: tested in triplicate
From the text: Table 1 Analytical data for NOTA-BBN(6-14) monomer and dimmers | column: Peptide

GRPR [2] = molecular target: T2, GRPR (Mus musculus, UniProt P21729); assay: Biodistribution in Balb/c mice (in vivo GRPR-targeting efficacy); conditions: mouse, pancreas, intravenous, total radioactivity; 64Cu-labeled peptide, female Balb/c mice, 30 min p.i.
T2 construct: using the pancreas, a GRPR-rich tissue, as a target for specific receptor-mediated accumulation; from tissue; host or cells: Female Balb/c mice, in vivo; organs (pancreas and others) collected 30 min p.i
Description: To determine the in vivo GRPR-targeting efficacy of labeled peptides, biodistribution of female Balb/c mice were realized with a minimum of 4 mice for each condition. Briefly, mice were injected with 370 to 740 kBq (10 to 20 μCi; 100 μL) of either ^64Cu/NOTA-monomer, ^64Cu/NOTA-dimer 1 or ^64Cu/NOTA-dimer 2 via the caudal vein. The animals were sacrificed with CO2 at 30 min post-injection [p.i.]. Organs of interest were then collected, weighed and measured in a gamma counter. The results were expressed as percentage of the injected dose per gram of tissue [%ID/g].

GRPR [3] = molecular target: T1, GRPR; assay: Competitive binding assay with [125I-Tyr4]bombesin on PC3 cells; set-up: host or cells: PC3 cells (whole, adherent cells in 24-well plates); conditions: read-out: Ki (affinity for GRPR)
Description: Competition assays were performed in 24-well plates using PC3 cells. The cells were cultured until near confluence, and the medium was replaced by 400 μL of reaction medium (RPMI complemented with 2 mg/mL BSA, 4.8 mg/mL HEPES, 1 U/mL penicillin G and 1 μg/mL streptomycin). For the assay, equal volumes of radioactive and non-radioactive ligands were added. […] The plates were incubated for 40 min at 37°C with agitation. After the incubation, the reaction medium was removed, and the cells were washed three times with PBS at room temperature. The cells were harvested and counted in a gamma counter (Cobra II auto-gamma counter, Packard, MN, USA). Experiments were realized three times in triplicate. Data were analyzed with GraphPad Prism 5 Software (GraphPad Software, San Diego, CA, USA) to determine the IC50. Finally, the Ki was determined using Cheng and Pursoff's formula [32].

T1 sequence (P30550 whole entry): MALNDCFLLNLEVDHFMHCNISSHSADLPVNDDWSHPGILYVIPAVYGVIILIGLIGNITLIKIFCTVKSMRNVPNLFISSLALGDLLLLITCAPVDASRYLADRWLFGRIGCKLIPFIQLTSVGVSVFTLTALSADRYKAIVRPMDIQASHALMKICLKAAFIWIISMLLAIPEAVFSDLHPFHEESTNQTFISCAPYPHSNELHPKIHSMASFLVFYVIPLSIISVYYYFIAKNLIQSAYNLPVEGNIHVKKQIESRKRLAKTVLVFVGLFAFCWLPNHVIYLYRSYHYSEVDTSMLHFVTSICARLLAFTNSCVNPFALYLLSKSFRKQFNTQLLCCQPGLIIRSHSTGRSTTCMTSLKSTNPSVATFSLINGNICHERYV
T2 sequence (P21729 whole entry): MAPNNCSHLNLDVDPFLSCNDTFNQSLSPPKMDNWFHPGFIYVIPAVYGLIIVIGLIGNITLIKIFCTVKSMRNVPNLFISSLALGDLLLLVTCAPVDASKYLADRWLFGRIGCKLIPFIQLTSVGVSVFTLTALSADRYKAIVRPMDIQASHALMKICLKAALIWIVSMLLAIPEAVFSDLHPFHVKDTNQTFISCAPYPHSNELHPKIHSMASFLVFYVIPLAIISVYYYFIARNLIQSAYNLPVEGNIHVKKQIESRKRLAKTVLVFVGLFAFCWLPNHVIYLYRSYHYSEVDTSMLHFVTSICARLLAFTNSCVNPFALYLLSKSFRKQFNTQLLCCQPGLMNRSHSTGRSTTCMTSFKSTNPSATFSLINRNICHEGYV

Structure (SMILES): CCCC[C@H](NC(=O)[C@H](Cc1cccs1)NC(=O)[C@H](Cc1c[nH]cn1)NC(=O)CCNC(=O)[C@@H](NC(=O)[C@H](C)NC(=O)[C@H](Cc1c[nH]c2ccccc12)NC(=O)[C@H](CCC(N)=O)NC(=O)[C@@H](Cc1ccc(O)cc1)NC(=O)COCCOCCNC(=O)CN1CCN(CC(=O)O)CCN(CC(=O)O)CC1)C(C)C)C(N)=O [NOTA-monomer, NOTA-PEG-BBN(6-14)] ({NOTA-AEEA}-[dY]QWAV[βAla]H[2Thi][Nle]-NH2)
- Ki (GRPR [1]): 1.3 nM
- tissue uptake at 0.5 h (GRPR [2]): 18.4 ± 2.9 %ID/g
- Ki (GRPR [3]): 2.51 ± 1.54 nM
